Measurements published in ChEMBL document CHEMBL6087458, “The Discovery of a Novel AXL/Triple Angiokinase Inhibitor Based on 6-Chloro-Substituted Indolinone and Side Chain Methyl Substitution Inhibiting Pancreatic Cancer Growth and Metastasis” (J Med Chem, 2025).
Active and inactive are the calls of the source. No cut-off for these calls is given here.

Columns and labels:
BXPC-3 [1] = experiment: cells; settings: Homo sapiens, BXPC-3, 72 h
Description: Antiproliferative activity against human BXPC-3 cells assessed as cell viability incubated for 72 hrs by MTT assay

BXPC-3 [2] = experiment: Antiproliferative activity against human BXPC-3 cells cultured as 3D tumor spheroids assessed as cell viability incubated for 7 days by CCK-8 assay; settings: BXPC-3, 168 h
[3] = biological target: Signal transducer and activator of transcription 3 (Homo sapiens) (UniProt P40763); experiment: Inhibition of STAT3 phosphorylation in human MDA-MB-231 cells incubated for 24 to 72 hrs by Western blot analysis; type: cell-based; settings: dose <= 5.0 µM, time 24-72 hrs
Signal transducer and activator of transcription 3 (Homo sapiens), sequence (P40763 whole entry): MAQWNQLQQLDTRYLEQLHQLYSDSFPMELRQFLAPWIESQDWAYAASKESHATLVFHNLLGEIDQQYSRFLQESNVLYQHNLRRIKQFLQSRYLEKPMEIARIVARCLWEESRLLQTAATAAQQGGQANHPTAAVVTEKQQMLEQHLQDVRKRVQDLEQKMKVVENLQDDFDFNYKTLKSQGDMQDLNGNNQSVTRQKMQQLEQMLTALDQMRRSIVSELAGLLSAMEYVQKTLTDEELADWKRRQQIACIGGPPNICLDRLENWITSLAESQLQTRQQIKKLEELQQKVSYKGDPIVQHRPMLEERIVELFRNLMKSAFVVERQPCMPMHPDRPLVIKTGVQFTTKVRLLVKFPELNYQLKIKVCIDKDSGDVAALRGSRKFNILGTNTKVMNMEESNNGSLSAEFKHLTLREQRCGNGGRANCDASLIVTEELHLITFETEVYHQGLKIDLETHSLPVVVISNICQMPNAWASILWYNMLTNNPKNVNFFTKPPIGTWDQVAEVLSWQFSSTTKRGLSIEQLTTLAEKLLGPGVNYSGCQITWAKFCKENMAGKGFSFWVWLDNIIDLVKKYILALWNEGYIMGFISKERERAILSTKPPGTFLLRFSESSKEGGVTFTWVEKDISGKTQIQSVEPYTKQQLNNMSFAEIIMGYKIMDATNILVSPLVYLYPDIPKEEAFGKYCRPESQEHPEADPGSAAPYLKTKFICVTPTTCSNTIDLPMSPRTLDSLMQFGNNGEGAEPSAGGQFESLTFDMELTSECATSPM

[4] = Oral bioavailability in Sprague-Dawley rat at 50 mg/kg; type: ADME, organism-based; settings: Sprague-Dawley, in vivo
MDA-MB-231 [5] = experiment: Effect on STAT3 level in human MDA-MB-231 cells incubated for 24 to 72 hrs by Western blot analysis; type: functional, cell-based; settings: time 24-72 hrs
[6] = biological target: BDNF/NT-3 growth factors receptor (Homo sapiens) (UniProt Q16620); experiment: Inhibition of TRKB (unknown origin) by envision reader analysis
BDNF/NT-3 growth factors receptor (Homo sapiens), sequence (Q16620 32-822 limits assumed): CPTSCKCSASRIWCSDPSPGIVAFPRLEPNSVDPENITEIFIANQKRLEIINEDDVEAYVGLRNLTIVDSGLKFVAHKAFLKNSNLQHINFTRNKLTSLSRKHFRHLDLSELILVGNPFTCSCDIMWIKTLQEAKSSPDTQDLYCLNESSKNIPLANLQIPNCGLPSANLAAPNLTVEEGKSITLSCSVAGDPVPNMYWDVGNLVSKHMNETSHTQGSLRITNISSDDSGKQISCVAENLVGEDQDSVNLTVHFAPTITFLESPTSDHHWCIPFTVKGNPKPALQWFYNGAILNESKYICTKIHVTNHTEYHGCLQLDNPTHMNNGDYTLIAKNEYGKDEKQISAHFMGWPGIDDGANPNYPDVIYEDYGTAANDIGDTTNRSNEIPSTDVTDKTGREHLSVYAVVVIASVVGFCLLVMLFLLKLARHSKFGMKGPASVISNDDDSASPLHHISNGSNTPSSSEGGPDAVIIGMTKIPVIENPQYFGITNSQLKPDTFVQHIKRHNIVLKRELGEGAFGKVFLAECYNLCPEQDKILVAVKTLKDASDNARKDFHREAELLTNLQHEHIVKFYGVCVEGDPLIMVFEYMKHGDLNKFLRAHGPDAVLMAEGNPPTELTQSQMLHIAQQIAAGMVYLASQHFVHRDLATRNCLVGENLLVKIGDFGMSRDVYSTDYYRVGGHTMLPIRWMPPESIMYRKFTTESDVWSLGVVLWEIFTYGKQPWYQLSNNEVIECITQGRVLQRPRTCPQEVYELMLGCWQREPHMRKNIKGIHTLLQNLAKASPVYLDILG

MDA-MB-231 [7] = experiment: Effect on N-cadherin expression in TGF-beta induced human MDA-MB-231 cells at 0.1 to 0.5 uM incubated for 24 hrs by immunofluorescence assay; type: functional, cell-based; settings: dose 0.1-0.5 µM
[8] = Toxicity in mouse implanted with human BXPC-3 cells at 25 to 50 mg/kg, po measured on day 11; type: organism-based; settings: in vivo, 264 h, dose 25-50 mg/kg, time 11 day
MDA-MB-231 [9] = experiment: Induction of apoptosis in human MDA-MB-231 cells assessed as increase in BAX expression at 0.1 to 1 uM incubated for 24 hrs by Western blot analysis; type: functional, cell-based; settings: dose 0.1-1 µM
HUVEC [10] = experiment: Inhibition of VEGFR phosphorylation in HUVEC cells at 0.5 to 2 uM incubated for 24 hrs by Western blot assay; type: cell-based; settings: Homo sapiens, dose 0.5-2 µM
Homo sapiens [11] = organism: Homo sapiens; experiment: Inhibition of PDGFR (unknown origin) by envision reader analysis
[12] = Antiproliferative activity against human HUVEC cells cultured as 3D tumor spheroids assessed as cell viability incubated for 72 hrs by CCK-8 assay; type: toxicity, cell-based
BXPC-3 [13] = experiment: Effect on E-cadherin expression in TGF-beta induced human BXPC-3 cells at 0.1 to 0.5 uM incubated for 24 hrs by immunofluorescence assay; type: functional, cell-based; settings: dose 0.1-0.5 µM
HUVEC [14] = experiment: Anti-angiogenesis activity in HUVEC assessed as reduction in tube formation at 0.5 to 2 uM incubated for 24 hrs by Calcein AM staining based light microscopic analysis; type: functional, cell-based; settings: Homo sapiens, dose 0.5-2 µM
HUVEC [15] = experiment: Inhibition of cell migration in human HUVEC cells assessed as decrease in migrating cells at 0.5 uM incubated for 24 hrs by wound healing assay; type: functional, cell-based
BXPC-3 [16] = experiment: Induction of apoptosis in human BXPC-3 cells assessed as increase in BAX expression at 0.1 to 1 uM incubated for 24 hrs by Western blot analysis; type: functional, cell-based; settings: dose 0.1-1 µM
[17] = biological target: Serine/threonine-protein kinase SIK2 (Homo sapiens) (UniProt Q9H0K1); experiment: Inhibition of QIK (unknown origin) by envision reader analysis
Serine/threonine-protein kinase SIK2 (Homo sapiens), sequence (Q9H0K1 whole entry, looked up): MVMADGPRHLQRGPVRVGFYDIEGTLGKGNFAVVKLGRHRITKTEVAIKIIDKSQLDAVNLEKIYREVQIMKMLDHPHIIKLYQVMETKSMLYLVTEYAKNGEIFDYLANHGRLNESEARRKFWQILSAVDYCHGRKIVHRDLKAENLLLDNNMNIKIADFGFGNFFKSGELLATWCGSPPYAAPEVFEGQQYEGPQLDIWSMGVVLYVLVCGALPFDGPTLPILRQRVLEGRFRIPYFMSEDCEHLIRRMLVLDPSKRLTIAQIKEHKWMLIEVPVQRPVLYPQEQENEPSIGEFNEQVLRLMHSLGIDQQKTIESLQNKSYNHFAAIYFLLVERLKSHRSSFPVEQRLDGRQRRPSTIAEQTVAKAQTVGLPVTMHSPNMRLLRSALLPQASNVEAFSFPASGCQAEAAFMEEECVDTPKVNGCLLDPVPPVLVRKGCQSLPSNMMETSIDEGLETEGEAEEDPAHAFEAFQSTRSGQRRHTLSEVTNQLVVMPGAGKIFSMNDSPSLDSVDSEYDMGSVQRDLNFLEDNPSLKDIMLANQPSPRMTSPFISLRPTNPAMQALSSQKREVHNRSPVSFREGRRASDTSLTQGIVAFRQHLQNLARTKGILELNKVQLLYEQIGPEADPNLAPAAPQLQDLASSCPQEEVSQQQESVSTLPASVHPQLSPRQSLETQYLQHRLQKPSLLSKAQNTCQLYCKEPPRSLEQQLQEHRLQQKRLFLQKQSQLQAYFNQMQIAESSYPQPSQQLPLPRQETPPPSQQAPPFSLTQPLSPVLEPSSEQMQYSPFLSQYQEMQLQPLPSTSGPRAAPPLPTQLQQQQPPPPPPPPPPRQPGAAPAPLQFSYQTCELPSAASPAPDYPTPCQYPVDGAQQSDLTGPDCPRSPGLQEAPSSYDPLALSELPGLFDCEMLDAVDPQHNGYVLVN

Homo sapiens [18] = organism: Homo sapiens; experiment: Inhibition of SRC (unknown origin) by envision reader analysis
[19] = Half life in Sprague-Dawley rat at 5 mg/kg, iv; type: ADME, organism-based; settings: in vivo
MDA-MB-231 [20] = experiment: Induction of apoptosis in human MDA-MB-231 cells assessed as decrease in Bcl-2 expression at 0.1 to 1 uM incubated for 24 hrs by Western blot analysis; type: functional, cell-based; settings: dose 0.1-1 µM
MDA-MB-231 [21] = experiment: Induction of apoptosis in human MDA-MB-231 cells by annexin V-FITC/propidium iodide staining-based flow cytometry analysis; type: functional, cell-based
[22] = Cytotoxicity against human HK-2 cells assessed as inhibition of cell growth; type: toxicity, cell-based
BXPC-3 [23] = experiment: Antitumor activity against human BXPC-3 cells xenografted in mouse assessed as effect on E-cadherin expression in tumor at 25 to 50 mg/kg, po administered for 14 days; type: functional, organism-based; settings: dose 25-50 mg/kg, time 14.0 day
NIH3T3 = experiment: Anti-fibrotic activity in mouse NIH3T3 cells assessed as reduction in fibronectin expression incubated for 48 hrs by Western blot analysis; type: functional, cell-based
Mitochondrial membrane = experiment: Induction of mitochondrial membrane potential depolarization in human MDA-MB-231 cells at 0.2 to 0.5 uM incubated for 24 hrs by JC-1 staining based flow cytometry analysis; type: cell membranes; settings: dose 0.2-0.5 µM
[24] = biological target: Signal transducer and activator of transcription 3 (Homo sapiens) (UniProt P40763); experiment: Inhibition of STAT3 phosphorylation in human BXPC-3 cells incubated for 24 to 72 hrs by Western blot analysis; type: cell-based; settings: dose <= 5.0 µM, time 24-72 hrs
BXPC-3 [25] = experiment: Effect on STAT3 level in human BXPC-3 cells incubated for 24 to 72 hrs by Western blot analysis; type: functional, cell-based; settings: time 24-72 hrs
[26] = Toxicity in mouse implanted with human BXPC-3 cells assessed as kidney damage at 50 mg/kg, po by H and E staining based analysis; type: organism-based; settings: in vivo
BXPC-3 [27] = experiment: Induction of apoptosis in human BXPC-3 cells by annexin V-FITC/propidium iodide staining-based flow cytometry analysis; type: functional, cell-based
[28] = Toxicity in mouse implanted with human BXPC-3 cells assessed as heart damage at 50 mg/kg, po by H and E staining based analysis; type: organism-based; settings: in vivo
BXPC-3 [29] = experiment: Induction of apoptosis in human BXPC-3 cells assessed as decrease in Bcl-2 expression at 0.1 to 1 uM incubated for 24 hrs by Western blot analysis; type: functional, cell-based; settings: dose 0.1-1 µM
NCI-H1975 = experiment: cells; settings: Homo sapiens, NCI-H1975, 72 h
Description: Antiproliferative activity against human NCI-H1975 cells assessed as cell viability incubated for 72 hrs by MTT assay

A549/TR = experiment: cells; settings: Homo sapiens, 72 h
Description: Antiproliferative activity against human A549/Taxol cells assessed as cell viability incubated for 72 hrs by MTT assay

[30] = biological target: Fibroblast growth factor receptor (Homo sapiens) (UniProt P22607+P11362+P22455+P21802); experiment: Inhibition of FGFR (unknown origin) by envision reader analysis; type: protein assay
[31] = Cytotoxicity against human HUVEC cells assessed as cell viability incubated for 72 hrs by MTT assay; type: toxicity, cell-based

In the case of `CCN1CCN(C(C)C(=O)N(C)c2ccc(N/C(=C3\C(=O)Nc4cc(Cl)ccc43)c3ccccc3)cc2)CC1` (racemic), the IC50 (BXPC-3 [1]) is reported as 1010 nM, the IC50 (BXPC-3 [2]) is reported as 1620 nM and the inhibition [3] is reported as “Dose-dependent-effect”. The bioavailability [4] was 6.53%, the Activity (MDA-MB-231 [5]) was “inactive” and the inhibition [6] was “Active”. For the same compound, the Activity (MDA-MB-231 [7]) was “Active”, the Activity [8] was “Non-toxic” and the Activity (MDA-MB-231 [9]) was “Active”. The inhibition (HUVEC [10]) was “Active”, the inhibition (Homo sapiens [11]) was “Active” and the IC50 at 72 h [12] was 1540 nM. The Activity (BXPC-3 [13]) was “Active”, the Activity (HUVEC [14]) was “Active” and the inhibition (HUVEC [15]) was “Active”. The Activity (BXPC-3 [16]) was “Active”, the inhibition [17] was “Active” and the inhibition (Homo sapiens [18]) was “Active”. The half-life [19] was 4.36 h, the Activity (MDA-MB-231 [20]) was “Active” and the Activity (MDA-MB-231 [21]) was “Active”. For the same compound, the IC50 [22] was 8350 nM, the Activity (BXPC-3 [23]) was “Active” and the Activity (NIH3T3) was “Active”. For the same compound, the Activity (Mitochondrial membrane) was “Active”, the inhibition [24] was “Dose-dependent-effect” and the Activity (BXPC-3 [25]) was “Active”. For the same compound, the Activity [26] was “Non-toxic”, the Activity (BXPC-3 [27]) was “Active” and the Activity [28] was “Non-toxic”. The Activity (BXPC-3 [29]) was “Active”, the IC50 (NCI-H1975) was 4380 nM and the IC50 (A549/TR) was 4770 nM. The inhibition [30] was “Active” and the IC50 at 72 h [31] was 430 nM.
